Experimental data published in PubChem BioAssay (NCI).
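Growth conditions: 96-well plates. Treatment: test compound, 48 hours, 5 concentrations. Analysis: linear interpolation between bracketing concentrations; unreached endpoints set to highest concentration. TGI marks complete inhibition of growth.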

Assays:
Test in all cases: DTP human tumour cell line panel, 48 h
HOP-18 NSCLC = test system: HOP-18 NSCLC
M14 melanoma = test system: M14 melanoma
SK-OV-3 ovarian = test system: SK-OV-3 ovarian
NCI-H522 lung = test system: NCI-H522 lung
SF-539 CNS = test system: SF-539 CNS
HL-60(TB) leukemia = test system: HL-60(TB) leukemia
UACC-257 melanoma = test system: UACC-257 melanoma
RXF 393 renal = test system: RXF 393 renal
CAKI-1 renal = test system: CAKI-1 renal
NCI-H23 lung = test system: NCI-H23 lung
HOP-62 NSCLC = test system: HOP-62 NSCLC
CCRF-CEM leukemia = test system: CCRF-CEM leukemia
TK-10 renal = test system: TK-10 renal
NCI-H460 lung = test system: NCI-H460 lung
OVCAR-5 ovarian = test system: OVCAR-5 ovarian
PC-3 prostate = test system: PC-3 prostate
T-47D breast = test system: T-47D breast
OVCAR-3 ovarian = test system: OVCAR-3 ovarian
MDA-MB-231 breast = test system: MDA-MB-231 breast
MCF7 breast = test system: MCF7 breast

Compound | TGI (HOP-18 NSCLC) | TGI (M14 melanoma) | TGI (SK-OV-3 ovarian) | TGI (NCI-H522 lung) | TGI (SF-539 CNS) | TGI (HL-60(TB) leukemia) | TGI (UACC-257 melanoma) | TGI (RXF 393 renal) | TGI (CAKI-1 renal) | TGI (NCI-H23 lung) | TGI (HOP-62 NSCLC) | TGI (CCRF-CEM leukemia) | TGI (TK-10 renal) | TGI (NCI-H460 lung) | TGI (OVCAR-5 ovarian) | TGI (PC-3 prostate) | TGI (T-47D breast) | TGI (OVCAR-3 ovarian) | TGI (MDA-MB-231 breast) | TGI (MCF7 breast)
CCC1CCc2c(c(=O)oc3c2cc(OC)c2cccc(OC)c23)C1 (centres undefined) | > 100 µM | > 100 µM | > 100 µM | > 100 µM | > 100 µM | 69.6 µM | > 100 µM | 89.9 µM | > 100 µM | > 100 µM | > 100 µM | > 100 µM | > 100 µM | > 100 µM | > 100 µM |  |  |  |  | 
O=C(NCCCl)N(O)C(=O)Nc1ccccc1 |  | > 100 µM | > 100 µM | > 100 µM | > 100 µM | > 100 µM | > 100 µM | > 100 µM | > 100 µM | > 100 µM | > 100 µM | > 100 µM | > 100 µM | > 100 µM | > 100 µM | > 100 µM | > 100 µM | > 100 µM | > 100 µM | > 100 µM
O=C(O/C=C\OC1CCCC1(c1ccccc1)c1ccccc1)c1ccccc1 (centres undefined) |  | 9.08 µM | 30.5 µM | 43 µM | 13.5 µM | 4.68 µM | 33 µM | 15 µM | > 63.6 µM | 6.07 µM | 36.9 µM | 5.89 µM | 17.9 µM | 88.8 µM | 31.1 µM | 13.6 µM | 7.42 µM | 21.3 µM | 6.17 µM | 6.67 µM
Fc1ccc(C(=C2CCN(CCc3ccc4[nH]c(=S)[nH]c4c3)CC2)c2ccc(F)cc2)cc1 |  | 2.9 µM | 36.8 µM | 3.65 µM | 7.74 µM | 4.63 µM | 2.4 µM | 3.49 µM | 28.6 µM | 13.1 µM | 38.6 µM | > 20.6 µM | 4.74 µM | 8.94 µM | 23 µM | 8.76 µM | 4.1 µM | 4.23 µM | 15 µM | 5.94 µM
O=C(Oc1cccnc1)c1cc2cc(CCl)ccc2oc1=O |  | 53.1 µM | > 100 µM | 35.5 µM | > 100 µM | 58.4 µM | 98.7 µM | 31.5 µM | 35 µM | 39.5 µM | > 100 µM | > 100 µM | 50.8 µM | > 100 µM | 64.6 µM | 32.9 µM | 48 µM | 57.9 µM | 43.2 µM | 11.3 µM
CC1=NC(=Cc2cc(Br)cc(Br)c2)C(=O)N1n1c(-c2ccccc2)nc2ccccc2c1=O |  | > 100 µM | > 100 µM | > 100 µM | > 100 µM | > 100 µM | > 100 µM | > 100 µM | > 100 µM | > 100 µM | > 100 µM | > 100 µM | > 100 µM | > 100 µM | > 100 µM | > 100 µM | > 100 µM | > 100 µM | > 100 µM | > 100 µM
O=C1c2cccc3cccc(c23)C(=O)N1CCCNCCCNCCCCNCCCNCCCN1C(=O)c2cccc3cccc(c23)C1=O |  | 16.2 µM | 32.1 µM | 32.6 µM | 23.7 µM | 4.64 µM | 22.6 µM | 19.1 µM | 29.6 µM | 16 µM | 27.3 µM | 3.29 µM | 25 µM | 14.1 µM | 21.9 µM | 13.4 µM | 47 µM | 19.6 µM | 22.4 µM | 1.61 µM
